Patent publication US12589107B2, “Composition containing nicotinamide mononucleotide and mogroside, and application thereof” (Beijing Hebabiz Biotechnology Co., Inc., priority 2019, dated 2026)

How the values were obtained:
3T3L1 preadipocytes = assay: MTT cell viability assay, proliferation of 3T3L1 preadipocytes (with Calcusyn combination index); assay type: cell-based; settings: 48 hours; for survival rate of 3T3L1 cells / cell proliferation, single agent: GX999 10-60 mM, GX008A 5-200 mM, P<0.01 vs blank control
Protocol: 3T3L1 cells were placed in DMEM high-glucose medium containing 10% calf serum and cultured at 37° C. and 5% CO2. When the cells reached 90% confluence, they were digested with 0.25% trypsin, passaged, and inoculated in a 96-well cell culture plate.
The logarithmic growth phase cells were taken and inoculated in a 96-well plate at a density of 5×10^3 cells/mL, with 4 replicate wells in each group. After the cells grew to about 40%-50% confluence, the fresh drug-containing medium was replaced with and they were divided into a GX999 alone group, a GX008A group, and a GX999+GX008A combination group. After culturing for 48h, MTT 20 ul (5 mg/mL) was added to each well and incubated for 4h. Then the culture medium was discarded, 150 ul DMSO was added to each well and shaken for 10 minutes, and the OD value of the optical density was detected at 490 nm with a microplate reader, and the cell survival rate was calculated according to the formula. Analysis of drug synergy:
(§1) Combination method: 10 mM GX999 in combination with GX008A (0, 5, 10, 30, 50 mM) group. According to the inhibition rates of different concentrations of drugs alone and in combination, the Calcusyn software was used to analyze and process data such as the inhibition rates of GX999 and GX008A alone at different concentrations and the inhibition rates in combination at corresponding concentrations to obtain the combination index (CI) value. According to the definition of combination index, the synergistic effect of drugs was judged, and the synergistic effect is indicated by less than 1.0, and the antagonistic effect is indicated by greater than 1.0.

[1] = system: alloxan-damaged RINm5f cells; assay: MTT cell viability assay, protection against alloxan-induced islet β-cell damage (with Calcusyn combination index); assay type: cell-based, rat; settings: for combination index CI value with alloxan: agent 0.5, 1, 5, 10 mM with alloxan 15 mM, Calcusyn, >1.0 = antagonistic (cytoprotective); for cell survival rate of alloxan-damaged pancreatic β-cells, single agent: alloxan 15 mM, agent 0.5, 1, 5, 10 mM, pretreated 1 h, 24 h, significant vs AXN group at 5 mM (P<0.05) and 10 mM (P<0.01)
Protocol: RINm5F cells were cultured to the logarithmic growth phase, inoculated in 96-well culture plates at a cell density of 5×10^4/ml, cultured for 24 hours, and then drugs were added. The experiment was divided into a negative control group, an alloxan damage group (AXN group) and a protection group. Both the AXN group and the protection group were added with alloxan at a final concentration of 15 mM, and the protection group was added with different concentrations of GX999 and GX008A, pretreated for 1h. The experiment set up 4 duplicate wells and the experiment was repeated three times.
RINm5F cells were cultured to the logarithmic growth phase, inoculated in 96-well culture plates at a cell density of 5×10^4/ml, cultured for 24 hours, and then drugs were added. The experiment was divided into a negative control group, an alloxan damage group (AXN group) and a protection group. Both the AXN group and the protection group were added with alloxan at a final concentration of 15 mM, and the protection group was added with different concentrations of GX999 and GX008A, pretreated for 1h. The experiment set up 4 duplicate wells and they were placed in a carbon dioxide incubator for regular culture for 24 hours. MTT 20 ul (5 mg/mL) was added to each well and incubated for 4 hours. Then the culture medium was discarded, 150 ul DMSO was added to each well and shaken for 10 minutes, and the OD value of the optical density was detected at 490 nm with a microplate reader.
as §1, with “According” for “Combination method: 10 mM GX999 in combination with GX008A (0, 5, 10, 30, 50 mM) group. According”
The experiment set up a negative control group and a damage group with different concentrations of alloxan (concentrations of 4 mM, 7 mM, 10 mM, 15 mM, 20 mM), after 24 hours of exposure, then 4 duplicate wells were set up, and the MTT method was used to detect the cell survival rate. […] Compared with the blank control group, the P value was less than 0.01, and the difference was statistically significant.

3T3-L1 preadipocytes = assay: Induced differentiation of 3T3-L1 preadipocytes, Oil Red O staining of lipid droplets; assay type: cell-based; settings: 10 mM each, 8 days of induced differentiation, P<0.01
Protocol: 2 days after the 3T3-L1 preadipocytes grew to complete confluence, the induction of differentiation began. That is, the DMEM complete medium was discarded, and replaced with DMEM complete medium containing 5 ug/ml insulin, 0.5 mM IBMX, 1 uM dexamethasone, and after 2 days, it was replaced with DMEM complete culture medium containing 5 ug/ml insulin and cultured for 2 days. Then DMEM complete culture medium was used to continue culturing for 2 days. From the first day of differentiation, the experimental group was given a culture medium containing 10 mM GX999 or 10 mM GX008A to intervene in the whole process of cell differentiation, and the control group was added with conventional inducers.
After 8 days of induced differentiation, the cells were fixed with 4% paraformaldehyde for 30 minutes, washed 3 times with balanced salt solution (PBS), incubated with oil red O staining solution for 60 minutes, the pipetted liquid was rinsed 3 times with PBS, and observed for the formation of lipid droplets under an inverted microscope and a video was taken. Isopropanol (200 ul per well) was added, and the absorbance at A490 nm was measured with a microplate reader after 5 minutes.
Based on the results of the above-mentioned combination application experiment, the drug concentration and combination concentration were selected. […]

## C[C@H](CC[C@@H](O[C@@H]1O[C@H](CO[C@@H]2O[C@H](CO)[C@@H](O)[C@H](O)[C@H]2O)[C@@H](O)[C@H](O)[C@H]1O[C@@H]1O[C@H](CO)[C@@H](O)[C@H](O)[C@H]1O)C(C)(C)O)[C@H]1CC[C@@]2(C)[C@@H]3CC=C4[C@@H](CC[C@H](O[C@@H]5O[C@H](CO[C@@H]6O[C@H](CO)[C@@H](O)[C@H](O)[C@H]6O)[C@@H](O)[C@H](O)[C@H]5O)C4(C)C)[C@]3(C)[C@H](O)C[C@]12C [GX008A, Mogroside V]
3T3L1 preadipocytes
  survival rate of 3T3L1 cells / cell proliferation, single agent: inhibited cell proliferation in a concentration-dependent manner
[1]
  combination index CI value with alloxan: greater than 1.0
  cell survival rate of alloxan-damaged pancreatic β-cells, single agent: the cell survival rate could be significantly improved
3T3-L1 preadipocytes
  lipid droplet content in cells compared with the differentiation group: significantly reduced

## NC(=O)c1ccc[n+]([C@@H]2O[C@H](COP(=O)([O-])O)[C@@H](O)[C@H]2O)c1 [GX999, Nicotinamide mononucleotide]
3T3L1 preadipocytes; 3T3L1 cells, MTT, read-out: IC50 (3T3L1 cell survival rate)
  IC50: 51.7 ± 1.5 mM
3T3L1 preadipocytes
  survival rate of 3T3L1 cells / cell proliferation, single agent: inhibited cell proliferation in a concentration-dependent manner
[1]
  combination index CI value with alloxan: greater than 1.0
  cell survival rate of alloxan-damaged pancreatic β-cells, single agent: the cell survival rate could be significantly improved
3T3-L1 preadipocytes
  lipid droplet content in cells compared with the differentiation group: significantly reduced

## O=C1NC(=O)C(=O)C(=O)N1 [alloxan, reference compound]
[1]; alloxan 4, 7, 10, 15, 20 mM, 24 hours, RINm5f cells, MTT
  cell survival rate / cell proliferation (alloxan cell damage model): inhibited cell proliferation in a concentration-dependent manner
